Data taken from PubChem BioAssay AID504752 (National Center for Advancing Translational Sciences (NCATS), 2011).

Assay: Inhibitors of Cruzain: PBS Stability Profiling Assay
Conditions: PBS pH 7 stability, 37 C, LC-MS/MS, 48 h; at 2 µM; active compounds read high
Description: Chagas Disease is a neglected tropical disease that affects over 16 million people in Latin America. The cysteine protease cruzain is essential for the survival Trypanosoma cruzi, the parasitic agent responsible for Chagas disease. Potential intervention for T. cruzi includes the inhibition of cruzain. This bioassay will summarize the ongoing development of small molecule cruzain inhbitiors. Currently, a screen of ~200k compounds and through extensive follow-up work a probe was identified. To further characterize the probe, it was tested in in vitro ADME assays. The stability of the lead compound in PBS buffer is tested because this parameter has a significant impact on many ADME-concerned properties of drugs, such as uptake, distribution, transport, and eventually bioavailability. NIH Chemical Genomics Center [NCGC] NIH Molecular Libraries Probe Production Centers Network [MLPCN] MLSCN Grant: DA024891-01 PI Name: Dr. Brian Shoichet; University of California, San Francisco
2uM of compound is incubated in PBS buffer at pH 7; the reference compound is procaine. Compounds are incubated at 37 deg C for the pre-determined time periods and the when aliquots are removed. Samples are analyzed with LC-MS/MS.

Molecule `Cc1ccc(OCCn2c(CCNC(=O)C3CCCCC3)nc3ccccc32)cc1` has a percent remaining of 100%.
